Measured values taken from PMC4827351 (Chemical Science, 2015).

Assays:
[1] = system: Salmonella enterica serovar Typhimurium; assay: SEM analysis of bacterial agglutination; type: cell-based; conditions: 3 µM proHD6 treated with trypsin before incubation (trypsin inactivated with APMSF), 30 min, 50 mM Tris-maleate pH 6.4
Procedure: Bacteria were grown aerobically at 37 °C overnight in LB media. The next morning the strains were subcultured and grown to mid-logarithmic phase in LB media. An aliquot of the bacteria (0.5–2 × 10^7 CFU mL^–1) was removed, sedimented by centrifugation (7000g × 2 min, 4 °C), washed twice with 50 mM Tris-maleate buffer, pH 6.4, and then resuspended in 0.5 mL of the 50 mM Tris-maleate buffer. The bacterial suspension was incubated at room temperature for 30 min with buffer control, 0.4 μM APMSF-inactivated trypsin, 3 μM proHD6, 3 μM trypsin-cleaved proHD6, or 3 μM HD6. Trypsin-cleaved proHD6 was prepared by incubating 30 μM proHD6 with 4 μM trypsin (Affimetrix, Santa Clara, CA) for 1 h at room temperature in 50 mM Tris-maleate buffer, pH 6.4. At the end of incubation, the trypsin was inactivated by addition of APMSF (p-amidinophenylmethylsulfonylfluoride HCl, Millipore, 25 μg mL^–1), and the mixture was added to the bacterial suspension. The APMSF-inactivated trypsin was similarly prepared, except that proHD6 was omitted from the preincubation. After a 30 min incubation, the treated bacterial suspensions were sedimented by centrifugation (7000g × 5 min, 4 °C), and the buffer supernatant was carefully removed. […]

[2] = Sedimentation velocity analytical ultracentrifugation; type: physicochemical; conditions: SV-AUC; for s20,w: 42 000 rpm, 20 °C, A280, DCDT+; for MW (best-fit molecular mass) / D: DCDT+
Procedure: The experiments were set up as previously reported.[15] In one set of experiments, 10× concentrated proHD6 solutions in Milli-Q water (≈40 μL) were transferred to microcentrifuge tubes and lyophilized to dryness. […] The pH of each solution was measured to confirm that it remained unchanged. The samples were centrifuged at 42 000 rpm and 20 °C until sedimentation was complete. The absorption wavelength for optical detection was 280 nm. All SV experiments were conducted with at least two independently prepared and purified samples of each peptide and in at least two independent trials.
Additional SV experiments were conducted to evaluate the effect of buffer components on the sedimentation of proHD6. In all cases, the proHD6 samples (400 μL) were prepared as described above except that proHD6 was dissolved in 10 mM Tris–HCl or HEPES pH 7.4 to obtain a final peptide concentration of 50 μM.
The experimental sedimentation coefficients were calculated by fitting the time derivative of the sedimentation velocity (–dc/dt) data using DCDT+.[29],[54] The –dc/dt distribution was generated from 22 to 28 scans with a peak broadening limit of 40 kDa by using DCDT+.
Table S4. Calculated sedimentation coefficients of proHD6.a
Concentration Buffer pH s20,w (S) D (F) MW (kDa) Partial Specific
(µM) (10 mM) Volume (mL/g) […]
a All samples were prepared in the indicated buffer; NaP is sodium phosphate. The temperature was 20 °C. Data were obtained by analysis with the dc/dt method implemented in DCDT+ using 22- 28 scans with 40 kDa diffusion broadening maximum. Sedimentation coefficients are s20,w values, adjusted with a solvent density (ρ) of 0.99967 g/mL and a solvent viscosity (η) of 1.0061 cP. Viscosity units are in centipoise (cP) (1 poise = 1 gŸ[…]cm-1Ÿ[…]s-1). Sedimentation coefficients are in svedbergs (1 svedberg = 100 fs = 1 x 10-13 s). Diffusion coefficients correspond to the best-fit molecular mass in Fick units (1 Fick = 1 x 10-7 cm2/s). HEPES has a solvent density (ρ) of 0.99901 g/mL and a solvent viscosity (η) of 1.0104 cP at 20 °C. Tris-HCl has a solvent density (ρ) of 0.99851 g/mL and a solvent viscosity (η) of 1.0037 cP at 20 °C. The solvent densities, viscosities, and the partial specific volume values of proHD6 monomer and dimer were […]

[3] = proHD6 30 µM, 10 mM NaP pH 7.4, first 30 µM line
[4] = proHD6 30 µM, 10 mM NaP pH 7.4, second 30 µM line
[5] = proHD6 30 µM, 10 mM NaP pH 7.4, third 30 µM line
[6] = proHD6 50 µM, 10 mM HEPES pH 7.4
[7] = proHD6 50 µM, 10 mM NaP pH 7.4, first 50 µM line
[8] = proHD6 50 µM, 10 mM NaP pH 7.4, second 50 µM line
[9] = proHD6 50 µM, 10 mM Tris-HCl pH 7.4
[10] = proHD6 100 µM, 10 mM NaP pH 7.4
[11] = proHD6 120 µM, 10 mM NaP pH 7.4
[12] = proHD6 140 µM, 10 mM NaP pH 7.4

## EPLQAEDDPLQAKAYEADAQEQRGANDQDFAVSFAEDASSSLRALGSTRAFTCHCRRSCYSTEYSYGTCTVMGINHRFCCL (disulfide (positions not given here)) [proHD6, 81-residue propeptide of human α-defensin 6, recombinant, from His6-SUMO-proHD6]
[1]
  bacterial agglutination (SEM), trypsin-cleaved: did not agglutinate S. Typhimurium unless it was treated with trypsin
[2]; [3]
  s20,w: 1.727 S
  MW (best-fit molecular mass): 14.3 kDa
[2]; [4]
  s20,w: 1.798 S
  D: 11.5 F
  MW (best-fit molecular mass): 12.8 kDa
[2]; [5]
  s20,w: 1.733 S
  D: 9.73 F
  MW (best-fit molecular mass): 14.5 kDa
[2]; [6]
  s20,w: 1.763 S
  D: 9.94 F
  MW (best-fit molecular mass): 14.4 kDa
[2]; [7]
  s20,w: 1.844 S
  D: 10.4 F
  MW (best-fit molecular mass): 14.4 kDa
[2]; [8]
  s20,w: 1.865 S
  D: 10.3 F
  MW (best-fit molecular mass): 14.8 kDa
[2]; [9]
  s20,w: 1.783 S
  D: 8.97 F
  MW (best-fit molecular mass): 16.1 kDa
[2]; [10]
  s20,w: 1.843 S
  D: 13.8 F
  MW (best-fit molecular mass): 10.9 kDa
[2]; [11]
  s20,w: 1.769 S
  D: 9.16 F
  MW (best-fit molecular mass): 15.7 kDa
[2]; [12]
  s20,w: 1.751 S
  D: 9.47 F
  MW (best-fit molecular mass): 15.0 kDa
[2]; proHD6 30 µM, 10 mM NaP pH 7.4, first 30 µM line, 1 Fick = 1 x 10-7 cm2/s
  D: 9.83 F
